# Source: paper PMC5218480 (PLoS ONE, 2017)
# Tested on: MV-4-11 cells
# Assay: Gene expression microarray analysis (Affymetrix PrimeView) and GSEA
# Assay type: cell-based, human
# Design: RFU PODN (11730768_x_at) / Fold change /veh PODN (11730768_x_at) / RFU LINC00158 (11744669_a_at) / Fold change /veh LINC00158 (11744669_a_at) / RFU DUSP10 (11751237_a_at) / Fold change /veh DUSP10 (11751237_a_at) / RFU ID3 (11757404_x_at) / Fold change /veh ID3 (11757404_x_at) / RFU PLEKHG5 (11737974_s_at) / Fold change /veh PLEKHG5 (11737974_s_at) / RFU LRRC4B (11730491_at) / Fold change /veh LRRC4B (11730491_at) / RFU GIMAP4 (11747438_a_at) / Fold change /veh GIMAP4 (11747438_a_at) / RFU KRT8 (11758183_x_at) / Fold change /veh KRT8 (11758183_x_at) / RFU CNN1 (11734310_a_at) / Fold change /veh CNN1 (11734310_a_at) / RFU VPS37D (11726825_at) / Fold change /veh VPS37D (11726825_at) / RFU C10orf10 (11716522_x_at) / Fold change /veh C10orf10 (11716522_x_at) / RFU KIR2DL2 /// KIR2DL4 /// KIR2DL5A /// KIR2DL5B /// KIR2DS1 /// KIR2DS2 /// KIR2DS3 /// KIR2DS4 /// KIR3DL3 /// KIR3DL3 /// KIR3DS1 (11738374_at) / Fold change /veh KIR2DL2 /// KIR2DL4 /// KIR2DL5A /// KIR2DL5B /// KIR2DS1 /// KIR2DS2 /// KIR2DS3 /// KIR2DS4 /// KIR3DL3 /// KIR3DL3 /// KIR3DS1 (11738374_at) / RFU C1QL1 (11718748_at) / Fold change /veh C1QL1 (11718748_at) / RFU TMPRSS4 (11747572_a_at) / Fold change /veh TMPRSS4 (11747572_a_at) / RFU HAMP (11756126_x_at) / Fold change /veh HAMP (11756126_x_at) / RFU RNFT2 (11725882_a_at) / Fold change /veh RNFT2 (11725882_a_at) / RFU NR4A2 (11747474_a_at) / Fold change /veh NR4A2 (11747474_a_at) / RFU ABCC12 (11746883_a_at) / Fold change /veh ABCC12 (11746883_a_at) / RFU TMEM136 (11760407_x_at) / Fold change /veh TMEM136 (11760407_x_at) / RFU CLDN22 /// WWC2 (11732394_at) / Fold change /veh CLDN22 /// WWC2 (11732394_at) / RFU HLA-DPB1 (11760878_x_at) / Fold change /veh HLA-DPB1 (11760878_x_at) / RFU SPINT1 (11716480_a_at) / Fold change /veh SPINT1 (11716480_a_at) / RFU GAP43 (11754022_s_at) / Fold change /veh GAP43 (11754022_s_at) / RFU A4GNT (11735810_at) / Fold change /veh A4GNT (11735810_at) / RFU PRB3 (11715151_x_at) / Fold change /veh PRB3 (11715151_x_at) / RFU TUBB4B (11761932_at) / Fold change /veh TUBB4B (11761932_at) / RFU CAPN14 (11732068_a_at) / Fold change /veh CAPN14 (11732068_a_at) / RFU TMCC2 (11721928_a_at) / Fold change /veh TMCC2 (11721928_a_at) / RFU IRGQ (11745062_a_at) / Fold change /veh IRGQ (11745062_a_at) / RFU FAM174B (11720279_a_at) / Fold change /veh FAM174B (11720279_a_at) / RFU TMPRSS4 (11748680_a_at) / Fold change /veh TMPRSS4 (11748680_a_at) / RFU FAM212B (11763350_a_at) / Fold change /veh FAM212B (11763350_a_at) / RFU PLEKHG5 (11743358_a_at) / Fold change /veh PLEKHG5 (11743358_a_at) / RFU ZSCAN30 (11745921_a_at) / Fold change /veh ZSCAN30 (11745921_a_at) / RFU CMKLR1 (11741424_a_at) / Fold change /veh CMKLR1 (11741424_a_at) / RFU LOC101060620 /// MAPK8IP1 (11723275_at) / Fold change /veh LOC101060620 /// MAPK8IP1 (11723275_at) / RFU SPTSSB (11747773_x_at) / Fold change /veh SPTSSB (11747773_x_at) / RFU PRSS12 (11739890_at) / Fold change /veh PRSS12 (11739890_at) / RFU BIN1 (11741810_x_at) / Fold change /veh BIN1 (11741810_x_at) / RFU WNT11 (11732464_a_at) / Fold change /veh WNT11 (11732464_a_at) / RFU C10orf10 (11716521_a_at) / Fold change /veh C10orf10 (11716521_a_at) / RFU C5orf56 (11738089_at) / Fold change /veh C5orf56 (11738089_at) / RFU CYB561 (11721691_x_at) / Fold change /veh CYB561 (11721691_x_at) / RFU ANKRD19P (11752326_a_at) / Fold change /veh ANKRD19P (11752326_a_at) / RFU OR2T12 /// OR2T33 /// OR2T8 (11738714_s_at) / Fold change /veh OR2T12 /// OR2T33 /// OR2T8 (11738714_s_at) / RFU VCAN (11748164_a_at) / Fold change /veh VCAN (11748164_a_at) / RFU JSRP1 (11732532_at) / Fold change /veh JSRP1 (11732532_at) / RFU KRTAP10-11 (11738290_x_at) / Fold change /veh KRTAP10-11 (11738290_x_at) / RFU MYO3A (11730013_a_at) / Fold change /veh MYO3A (11730013_a_at) / RFU EBF3 (11725865_a_at) / Fold change /veh EBF3 (11725865_a_at) / RFU CAMK2N1 (11719241_x_at) / Fold change /veh CAMK2N1 (11719241_x_at) / RFU C5orf56 (11738088_a_at) / Fold change /veh C5orf56 (11738088_a_at) / RFU OLFML3 (11715873_a_at) / Fold change /veh OLFML3 (11715873_a_at) / RFU LOC100653217 /// NTM (11731650_a_at) / Fold change /veh LOC100653217 /// NTM (11731650_a_at) / RFU MAPK11 (11762145_a_at) / Fold change /veh MAPK11 (11762145_a_at) / RFU FIZ1 (11724087_x_at) / Fold change /veh FIZ1 (11724087_x_at) / RFU OASL (11726364_x_at) / Fold change /veh OASL (11726364_x_at) / RFU SOX15 (11748057_x_at) / Fold change /veh SOX15 (11748057_x_at) / RFU CD79A (11719716_a_at) / Fold change /veh CD79A (11719716_a_at) / RFU HIST1H1D (11736915_at) / Fold change /veh HIST1H1D (11736915_at) / RFU CASKIN2 (11723855_a_at) / Fold change /veh CASKIN2 (11723855_a_at) / RFU LOC730098 (11760151_x_at) / Fold change /veh LOC730098 (11760151_x_at) / RFU OR4N2 (11742367_at) / Fold change /veh OR4N2 (11742367_at) / RFU PRRT2 (11749266_a_at) / Fold change /veh PRRT2 (11749266_a_at) / RFU SNX32 (11753110_a_at) / Fold change /veh SNX32 (11753110_a_at) / RFU CDHR5 (11726645_a_at) / Fold change /veh CDHR5 (11726645_a_at) / RFU RCAN1 (11760418_a_at) / Fold change /veh RCAN1 (11760418_a_at) / RFU FAM167A (11723789_a_at) / Fold change /veh FAM167A (11723789_a_at) / RFU FAM26E (11764081_at) / Fold change /veh FAM26E (11764081_at) / RFU ISYNA1 (11749810_s_at) / Fold change /veh ISYNA1 (11749810_s_at) / RFU ACY1 (11761880_at) / Fold change /veh ACY1 (11761880_at) / RFU 11764098_at / Fold change /veh 11764098_at / RFU SAMD14 (11745864_x_at) / Fold change /veh SAMD14 (11745864_x_at) / RFU NPB (11741838_a_at) / Fold change /veh NPB (11741838_a_at) / RFU TMPRSS6 (11731388_a_at) / Fold change /veh TMPRSS6 (11731388_a_at) / RFU KRTAP10-2 (11738614_at) / Fold change /veh KRTAP10-2 (11738614_at) / RFU ARHGAP8 /// PRR5-ARHGAP8 (11727945_x_at) / Fold change /veh ARHGAP8 /// PRR5-ARHGAP8 (11727945_x_at) / RFU KRTAP5-7 /// NADSYN1 (11734609_at) / Fold change /veh KRTAP5-7 /// NADSYN1 (11734609_at) / RFU RASL12 (11751679_a_at) / Fold change /veh RASL12 (11751679_a_at) / RFU CDKN2B (11736163_a_at) / Fold change /veh CDKN2B (11736163_a_at) / RFU PRF1 (11729649_at) / Fold change /veh PRF1 (11729649_at) / RFU, ZNF638 /// ZNF638-IT1 / Fold change vs veh, ZNF638 /// ZNF638-IT1 / RFU, PANK3 / Fold change vs veh, PANK3 / RFU, SH3YL1 / Fold change vs veh, SH3YL1 / RFU, ZEB2 / Fold change vs veh, ZEB2 / RFU, NRIP1 / Fold change vs veh, NRIP1 / RFU, PTTG1IP / Fold change vs veh, PTTG1IP / RFU, CAPN2 / Fold change vs veh, CAPN2 / RFU, MED14 / Fold change vs veh, MED14 / RFU, SNORA58 / Fold change vs veh, SNORA58 / RFU, C1orf63 / Fold change vs veh, C1orf63 / RFU, LRRFIP1 / Fold change vs veh, LRRFIP1 / RFU, NDUFAF7 / Fold change vs veh, NDUFAF7 / RFU, SLC12A2 / Fold change vs veh, SLC12A2 / RFU, IBTK / Fold change vs veh, IBTK / RFU, ESF1 / Fold change vs veh, ESF1 / Fold change vs veh, TMEM50B / RFU, TAOK1 / Fold change vs veh, TAOK1 / RFU, ACBD3 / Fold change vs veh, ACBD3 / RFU, TMA16 / Fold change vs veh, TMA16 / RFU, RWDD3 / Fold change vs veh, RWDD3 / RFU, BCAT1 / Fold change vs veh, BCAT1 / RFU, EDEM3 / Fold change vs veh, EDEM3 / RFU, TMEM33 / Fold change vs veh, TMEM33 / RFU, WDR75 / Fold change vs veh, WDR75 / RFU, AHCTF1 / Fold change vs veh, AHCTF1 / RFU, TFRC / Fold change vs veh, TFRC / RFU, ZDHHC17 / Fold change vs veh, ZDHHC17 / RFU, NOM1 / Fold change vs veh, NOM1 / RFU, ARL8B / Fold change vs veh, ARL8B / RFU, ZBTB11 / Fold change vs veh, ZBTB11 / RFU, TAMM41 / Fold change vs veh, TAMM41 / RFU, KIAA1704 /// LOC100996395 / Fold change vs veh, KIAA1704 /// LOC100996395 / RFU, ING1 / Fold change vs veh, ING1 / RFU, TRMT61B / Fold change vs veh, TRMT61B / RFU, FUBP3 / Fold change vs veh, FUBP3 / RFU, TP53 / Fold change vs veh, TP53 / RFU, TNKS2 / Fold change vs veh, TNKS2 / RFU, ZFP14 / Fold change vs veh, ZFP14 / RFU, ACTR2 / Fold change vs veh, ACTR2 / RFU, PPP3R1 / Fold change vs veh, PPP3R1 / RFU, PIK3R1 / Fold change vs veh, PIK3R1 / RFU, HNRNPA1 / Fold change vs veh, HNRNPA1 / RFU, RNF170 / Fold change vs veh, RNF170 / RFU, ZNF28 / Fold change vs veh, ZNF28 / RFU, RNGTT / Fold change vs veh, RNGTT / RFU, OGT / Fold change vs veh, OGT / RFU, BRD1 / Fold change vs veh, BRD1 / RFU, MARS / Fold change vs veh, MARS / RFU, ZNF655 / Fold change vs veh, ZNF655 / RFU, FAHD1 / Fold change vs veh, FAHD1 / RFU, BDP1 / Fold change vs veh, BDP1 / RFU, LRRCC1 / Fold change vs veh, LRRCC1 / RFU, ARID1A / Fold change vs veh, ARID1A / RFU, ZNF146 / Fold change vs veh, ZNF146 / RFU, ZNF330 / Fold change vs veh, ZNF330 / RFU, GPN3 / Fold change vs veh, GPN3 / RFU, C9orf123 / Fold change vs veh, C9orf123 / RFU, N4BP2L2 / Fold change vs veh, N4BP2L2 / RFU, ARFIP1 / Fold change vs veh, ARFIP1 / RFU, FAM179B / Fold change vs veh, FAM179B / RFU, BCL10 / Fold change vs veh, BCL10 / RFU, UHRF1BP1L / Fold change vs veh, UHRF1BP1L / RFU, BET1 / Fold change vs veh, BET1 / RFU, CNOT2 / Fold change vs veh, CNOT2 / RFU, ZNF268 / Fold change vs veh, ZNF268 / Fold change vs veh, ZNF507 / RFU, DGCR2 / Fold change vs veh, DGCR2 / RFU, WDSUB1 / Fold change vs veh, WDSUB1 / Fold change vs veh, HSP90B1 /// MIR3652 / RFU, ADSS / Fold change vs veh, ADSS / RFU, GK / Fold change vs veh, GK / RFU, ZNF148 / Fold change vs veh, ZNF148 / RFU, TAF9 / Fold change vs veh, TAF9 / RFU, SLC1A5 / Fold change vs veh, SLC1A5 / RFU, SLMO2 / Fold change vs veh, SLMO2 / RFU, ABCC4 / Fold change vs veh, ABCC4 / RFU, LOC101060439 /// RAP1B / Fold change vs veh, LOC101060439 /// RAP1B / RFU, RFX7 / Fold change vs veh, RFX7 / RFU, GTPBP10 / Fold change vs veh, GTPBP10 / RFU, CNEP1R1 / Fold change vs veh, CNEP1R1 / RFU, BIVM-ERCC5 /// ERCC5 / Fold change vs veh, BIVM-ERCC5 /// ERCC5 / RFU, ILF3 / Fold change vs veh, ILF3 / RFU 11762660_at / Fold change /veh 11762660_at / RFU VCAN (11757783_s_at) / Fold change /veh VCAN (11757783_s_at) / RFU DDX43 (11728927_at) / Fold change /veh DDX43 (11728927_at) / RFU KRT8 (11758188_x_at) / Fold change /veh KRT8 (11758188_x_at) / RFU NKD1 (11759106_at) / Fold change /veh NKD1 (11759106_at) / RFU SRD5A1 (11742802_a_at) / Fold change /veh SRD5A1 (11742802_a_at) / RFU TPSAB1 /// TPSB2 (11721975_s_at) / Fold change /veh TPSAB1 /// TPSB2 (11721975_s_at) / RFU GSTM3 (11746129_a_at) / Fold change /veh GSTM3 (11746129_a_at) / RFU IL23R (11737362_x_at) / Fold change /veh IL23R (11737362_x_at) / RFU TMEM51 (11727254_a_at) / Fold change /veh TMEM51 (11727254_a_at) / RFU PIWIL2 (11732686_x_at) / Fold change /veh PIWIL2 (11732686_x_at) / RFU ORM1 (11744905_x_at) / Fold change /veh ORM1 (11744905_x_at) / RFU CCDC152 (11743942_at) / Fold change /veh CCDC152 (11743942_at) / RFU ECM1 (11717891_a_at) / Fold change /veh ECM1 (11717891_a_at) / RFU IL23R (11748794_a_at) / Fold change /veh IL23R (11748794_a_at) / RFU TNFAIP8L3 (11732012_x_at) / Fold change /veh TNFAIP8L3 (11732012_x_at) / RFU MBOAT4 (11741988_at) / Fold change /veh MBOAT4 (11741988_at) / RFU 11764193_at / Fold change /veh 11764193_at / RFU TMEM53 (11763286_at) / Fold change /veh TMEM53 (11763286_at) / RFU MAGEB2 (11727129_at) / Fold change /veh MAGEB2 (11727129_at) / RFU TMEM200A (11744735_a_at) / Fold change /veh TMEM200A (11744735_a_at) / RFU CCDC152 (11751479_a_at) / Fold change /veh CCDC152 (11751479_a_at) / RFU FAM211A (11726209_a_at) / Fold change /veh FAM211A (11726209_a_at) / RFU RGS16 (11746705_a_at) / Fold change /veh RGS16 (11746705_a_at) / RFU VCAN (11755009_s_at) / Fold change /veh VCAN (11755009_s_at) / RFU RHOB (11743442_s_at) / Fold change /veh RHOB (11743442_s_at) / RFU RGS16 (11720943_a_at) / Fold change /veh RGS16 (11720943_a_at) / RFU RGS16 (11720944_at) / Fold change /veh RGS16 (11720944_at) / RFU, VPS4B / Fold change vs veh, VPS4B / RFU, CREB1 / Fold change vs veh, CREB1 / RFU, DNAJC13 / Fold change vs veh, DNAJC13 / RFU, GNAQ / Fold change vs veh, GNAQ / RFU, CDK5R1 / Fold change vs veh, CDK5R1 / RFU, ZRANB3 / Fold change vs veh, ZRANB3 / RFU, CUL4A / Fold change vs veh, CUL4A / RFU, CCNY / Fold change vs veh, CCNY / RFU, UFL1 / Fold change vs veh, UFL1 / RFU, COG3 / Fold change vs veh, COG3 / RFU, DIAPH2 / Fold change vs veh, DIAPH2 / RFU, SKA2 / Fold change vs veh, SKA2 / RFU, AFF3 / Fold change vs veh, AFF3 / RFU, LMF1 / Fold change vs veh, LMF1 / RFU, IPO11 / Fold change vs veh, IPO11 / RFU, DFFB / Fold change vs veh, DFFB / RFU, FOXP1 / Fold change vs veh, FOXP1 / RFU, CARD8 / Fold change vs veh, CARD8 / RFU, STRN3 / Fold change vs veh, STRN3 / RFU, ADK / Fold change vs veh, ADK / RFU, RASSF2 / Fold change vs veh, RASSF2 / RFU, WIPF1 / Fold change vs veh, WIPF1 / RFU, LARP1B / Fold change vs veh, LARP1B / RFU, RASA1 / Fold change vs veh, RASA1 / RFU, RB1 / Fold change vs veh, RB1 / RFU, PPFIA1 / Fold change vs veh, PPFIA1 / RFU, MAT2A / Fold change vs veh, MAT2A / RFU, CCT5 / Fold change vs veh, CCT5 / RFU, WDR92 / Fold change vs veh, WDR92 / RFU, CUX1 / Fold change vs veh, CUX1 / RFU, TTC7A / Fold change vs veh, TTC7A / RFU, TMEM135 / Fold change vs veh, TMEM135 / RFU, DEPTOR / Fold change vs veh, DEPTOR / RFU, CPM / Fold change vs veh, CPM / RFU, DNAJB6 / Fold change vs veh, DNAJB6 / RFU, CACNA2D3 / Fold change vs veh, CACNA2D3 / RFU, DTX4 / Fold change vs veh, DTX4 / RFU, TFCP2 / Fold change vs veh, TFCP2 / RFU, GMCL1 /// GMCL1P1 / Fold change vs veh, GMCL1 /// GMCL1P1 / RFU, AEBP2 / Fold change vs veh, AEBP2 / RFU, SNHG1 /// SNORD22 /// SNORD25 /// SNORD26 /// SNORD27 /// SNORD28 /// SNORD29 /// SNORD31 / Fold change vs veh, SNHG1 /// SNORD22 /// SNORD25 /// SNORD26 /// SNORD27 /// SNORD28 /// SNORD29 /// SNORD31 / Fold change (Aza/veh), C12orf56 (ProbeSet 11735607_a_at) / Fold change (ACY-1035/veh), C12orf56 (ProbeSet 11735607_a_at) / Fold change (Aza/veh), FGFR1OP (ProbeSet 11751329_s_at) / Fold change (ACY-1035/veh), FGFR1OP (ProbeSet 11751329_s_at) / Fold change (Aza/veh), VPS36 (ProbeSet 11739960_a_at) / Fold change (ACY-1035/veh), VPS36 (ProbeSet 11739960_a_at) / RFU SYPL1 (11715823_x_at) / Fold change /veh SYPL1 (11715823_x_at) / RFU IGFBP7 (11715501_s_at) / Fold change /veh IGFBP7 (11715501_s_at) / RFU REEP3 (11722064_at) / Fold change /veh REEP3 (11722064_at) / RFU IGLL1 (11728026_x_at) / Fold change /veh IGLL1 (11728026_x_at): dose or concentration left out as unconfirmed
# Conditions: MV-4-11 cells, 48 hours
smiles,measurement,value
Nc1ncn([C@@H]2O[C@H](CO)[C@@H](O)[C@H]2O)c(=O)n1 [azacitidine],Fold change /veh FAM212B (11763350_a_at),1.13
